Data as given in article PMC2363166, “Water-soluble aluminium phthalocyanine–polymer conjugates for PDT: photodynamic activities and pharmacokinetics in tumour-bearing mice” (British Journal of Cancer, 1999).

What was measured:
[1] = tested on: EMT-6 mouse mammary tumour cells; assay: Cellular photoinactivation, MTT cell survival after red light; assay type: cell-based; details: 1% FBS, red light 660-700 nm
Source text: Among the second-generation photosensitizers (PS) developed for the treatment of neoplastic diseases by photodynamic therapy (PDT) (Kessel, 1996; Ochsner, 1997), metallo-phthalocyanines (MePc) have been proposed (Spikes, 1986; van Lier, 1990; Rosenthal, 1991) as an alternative to Photofrin (PII), the only PS currently approved for clinical use. Their stronger absorption in the red part of the spectrum (molar extinction coefficient, […] at 675 nm), where the depth of light penetration in tissues is twice that obtained at 630 nm with PII (Svaasand, 1984), together with their chemical homogeneity and their lower potential to induce cutaneous photosensitivity (Roberts et al, 1989; Tralau et al, 1989) are major advantages over PII. […] The potential of the water-soluble aluminium sulphophthalocyanine (AlPcS) to generate activated oxygen species (Sharman et al, 1999) and to induce a photo- dynamic response in vivo has been widely evaluated, and a mixture of AlPcS bearing 2-4 sulphonato groups per Pc (Photosense) is used extensively and successfully in clinical PDT in Russia (Zharkova et al, 1994). […] Their photodynamic activities were evaluated in vitro against the EMT-6 mouse mammary tumour cells and in vivo against the EMT-6 and the colon carcinoma Colo-26 tumours implanted intradermally in Balb/c mice. […]

[2] = Biodistribution and plasma clearance after i.v. injection in EMT-6 tumour-bearing mice; assay type: in vivo
Source text: (§1) Among the second-generation photosensitizers (PS) developed for the treatment of neoplastic diseases by photodynamic therapy (PDT) (Kessel, 1996; Ochsner, 1997), metallo-phthalocyanines (MePc) have been proposed (Spikes, 1986; van Lier, 1990; Rosenthal, 1991) as an alternative to Photofrin (PII), the only PS currently approved for clinical use. Their stronger absorption in the red part of the spectrum (molar extinction coefficient, […] at 675 nm), where the depth of light penetration in tissues is twice that obtained at 630 nm with PII (Svaasand, 1984), together with their chemical homogeneity and their lower potential to induce cutaneous photosensitivity (Roberts et al, 1989; Tralau et al, 1989) are major advantages over PII. Unsubstituted MePc are not soluble in physiological solvents and their in vivo administration relies upon their incorporation into carriers, such as the liposomal formulation of ZnPc (Isele et al, 1995), or their chemical conversion into water-soluble dyes by the attachment of selected substituents onto the benzene rings of the macrocycle. An inverse relationship was related between the degree of substitution by sulphonato groups of MePc and their hydrophobicity and photodynamic activities, both at the cellular level and in tumour-bearing mice (Brasseur et al, 1987, 1988; Paquette et al, 1988; Berg et al, 1989; Chan et al, 1990, 1991; Margaron et al, 1996a). The potential of the water-soluble aluminium sulphophthalocyanine (AlPcS) to generate activated oxygen species (Sharman et al, 1999) and to induce a photo- dynamic response in vivo has been widely evaluated, and a mixture of AlPcS bearing 2-4 sulphonato groups per Pc (Photosense) is used extensively and successfully in clinical PDT in Russia (Zharkova et al, 1994). […] The unsubstituted AlClPc has, however, attracted less attention even though it has been shown that this compound formulated as a Cremophor emulsion was preferentially retained by a gliosarcoma and was able to induce tumour necrosis in this model (Dereski et al, 1994). […] However, Cremophor oil is known to induce unwanted side-effects in patients (Dye and Watkins, Water-soluble aluminium phthalocyaninepolymer conjugates for PDT: photodynamic activities and pharmacokinetics in tumour-bearing mice N Brasseur, R Ouellet, C La Madeleine and JE van Lier MRC Group in the Radiation Sciences, Faculty of Medicine, Universite de Sherbrooke, Sherbrooke, Quebec, J1H 5N4, Canada Summary The potential use of unsubstituted aluminium phthalocyanine (AlClPc) as a sensitizer for photodynamic therapy (PDT) of cancer has not been fully exploited in spite of its higher efficiency as compared to the sulphonated derivatives. This is largely due to the strong hydrophobic character of AlClPc which renders the material difficult to formulate for in vivo administration. We prepared two water-soluble derivatives of AlClPc by axial coordination of polyethyleneglycol (PEG, MW 2000) or polyvinylalcohol (PVA, MW 13 000-23 000) to the central aluminium ion. Their photodynamic activities were evaluated in vitro against the EMT-6 mouse mammary tumour cells and in vivo against the EMT-6 and the colon carcinoma Colo-26 tumours implanted intradermally in Balb/c mice. Pharmacokinetics were studied in the EMT-6 tumour-bearing mice. […] All three dye preparations induced complete EMT-6 tumour regression in 75-100% of animals at a low drug dose ([…] ) following PDT (400 J cm-2 , 650-700 nm) at 24 h pi. Complete tumour regression in the Colo-26 tumour model was obtained in 30% of mice at a dose of […] . In the non-cured animals, AlPc-PVA induced the most significant tumour growth delay. […] Moreover, in the case of the polyvinylalcohol derivative, axial coordination confers advantageous pharmacokinetics to AlPc, which makes this photosensitizer a valuable, water soluble candidate drug for clinical PDT of cancer. […]

Colo-26 tumour = assay: Photodynamic therapy of the Colo-26 tumour implanted i.d. in Balb/c mice; assay type: in vivo; set-up: Oedema observed 24 h after PDT: key to the marks not given beside the values
Source text: as §1

EMT-6 tumour = details: 0.25 μmol kg-1 i.v., PDT 24 h p.i., 400 J cm-2, ref Chan et al (1997); cited from earlier work
[3] = 6 h after i.v. 2 μmol kg-1, n = 4
[4] = 24 h after i.v. 2 μmol kg-1, n = 4
[5] = 48 h after i.v. 2 μmol kg-1, n = 4
[6] = 168 h after i.v. 2 μmol kg-1, n = 4
[7] = Colo-26 tumour, 2 μmol kg-1 i.v., PDT 24 h p.i., 400 J cm-2

**Q.** For `[Cl][Al]1[n]2c3c4ccccc4c2N=C2N=C(N=c4c5ccccc5c([n]41)=NC1=NC(=N3)c3ccccc31)c1ccccc12` [AlClPc, aluminium phthalocyanine], which “light dose required to kill 90% of cells (LD90)” value ([1]; 1 h incubation, 10 mW cm-2, max 36 J cm-2) is on record?
**A.** 13.5 J cm-2

**Q.** What about the “light dose required to kill 90% of cells (LD90)” value ([1]; 24 h incubation, 10 mW cm-2) of the same molecule?
**A.** 4.5 J cm-2

**Q.** And the “retention by the liver” value ([2]; 1-week pi, i.v. 2 μmol kg-1)?
**A.** 73%

**Q.** And the Tumour-to-plasma ratio [2, 3]?
**A.** 0.4

**Q.** And the Tumour-to-skin ratio [2, 3]?
**A.** 3.5

**Q.** And the Tumour-to-tumour skin ratio [2, 3]?
**A.** 1.0

**Q.** What about the Tumour-to-muscle ratio [2, 4] of the same molecule?
**A.** 16.9

**Q.** What about the Tumour-to-plasma ratio [2, 4] of the same molecule?
**A.** >>

**Q.** And the Tumour-to-skin ratio [2, 4]?
**A.** 5.3

**Q.** What about the Tumour-to-tumour skin ratio [2, 4] of the same molecule?
**A.** 1.0

**Q.** And the Tumour-to-muscle ratio [2, 5]?
**A.** 19.5

**Q.** What about the Tumour-to-plasma ratio [2, 5] of the same molecule?
**A.** >>

**Q.** What about the Tumour-to-skin ratio [2, 5] of the same molecule?
**A.** 3.3

**Q.** And the Tumour-to-tumour skin ratio [2, 5]?
**A.** 0.7

**Q.** And the Tumour-to-muscle ratio [2, 6]?
**A.** >>

**Q.** What about the Tumour-to-plasma ratio [2, 6] of the same molecule?
**A.** >>

**Q.** And the Tumour-to-skin ratio [2, 6]?
**A.** 2.0

**Q.** And the Tumour-to-tumour skin ratio [2, 6]?
**A.** 0.9

**Q.** What about the plasma half-life ([2]; i.v. 2 μmol kg-1, EMT-6 tumour-bearing mice) of the same molecule?
**A.** 2.6 h

**Q.** And the “damage to leg muscle” value (Colo-26 tumour; 2 μmol kg-1, PDT 24 h p.i.)?
**A.** did not induce damage to leg muscle

**Q.** And the “tumour regrowth delay relative to controls” value (Colo-26 tumour; Colo-26 tumour, 2 μmol kg-1, non-cured mice)?
**A.** 1.5 times that of the controls

**Q.** What about the “Tumour response, Regression (flat and necrotic within 3-5 days after PDT)” value (Colo-26 tumour; Colo-26 tumour, 2 μmol kg-1 i.v., PDT 24 h p.i., 200 mW cm-2, 400 J cm-2) of the same molecule?
**A.** 80 % of mice

**Q.** What about the “Oedema observed 24 h after PDT” value (Colo-26 tumour; [7]) of the same molecule?
**A.** ++

**Q.** What about the “Tumour response, Cure (complete tumour regression at 30 days minimum)” value (Colo-26 tumour; [7]) of the same molecule?
**A.** 30 % of mice

**Q.** And the “Regrowth to 20 Vo (time for tumour to reach 20 times the volume at the time of PDT)” value (Colo-26 tumour; Colo-26 tumour, 2 μmol kg-1 i.v., PDT 24 h p.i., non-cured mice only, controls 15.0 (0.3))?
**A.** 23.5 (2.1) days (s.e.m.)

**Q.** And the “Oedema observed 24 h after PDT” value (EMT-6 tumour)?
**A.** +

**Q.** What about the “Tumour response, Cure (complete tumour regression at 21 days)” value (EMT-6 tumour) of the same molecule?
**A.** 100 % of mice

**Q.** What about the “Tumour response, Regression (flat and necrotic within 3-5 days after PDT)” value (EMT-6 tumour) of the same molecule?
**A.** 100 % of mice
